Data on 41 molecules can be found in ChEMBL document CHEMBL1914432, “Discovery of highly potent small molecule Hepatitis C Virus entry inhibitors” (Bioorg Med Chem Lett, 2011).

Calls of active or inactive are those of the source.

The subject of data set [1] is Hepatitis C virus. Kind of data set: Antiviral activity against chronic Hepatitis C virus type 2a infected in human HuH7 cells by Renilla luciferase reporter gene assay. The note with it: genotype 2a, Huh-7. Format: functional, organism-based, Hepacivirus hominis.
The subject of data set [2] is Plasma. Kind of data set: Drug metabolism in rat plasma assessed as plasma esterase-mediated formation of 9-(3-(4,6-dimethoxypyrimidin-2-ylamino)propyl-2,3,4,9-tetrahydro-1H-carbazole-6-carboxylic acid by LC-MS analysis. It counts as ADME, cell-free.
Data set [3] deals with T1, Scavenger receptor class B member 1 (Homo sapiens) (UniProt Q8WTV0).
T1 sequence (whole entry): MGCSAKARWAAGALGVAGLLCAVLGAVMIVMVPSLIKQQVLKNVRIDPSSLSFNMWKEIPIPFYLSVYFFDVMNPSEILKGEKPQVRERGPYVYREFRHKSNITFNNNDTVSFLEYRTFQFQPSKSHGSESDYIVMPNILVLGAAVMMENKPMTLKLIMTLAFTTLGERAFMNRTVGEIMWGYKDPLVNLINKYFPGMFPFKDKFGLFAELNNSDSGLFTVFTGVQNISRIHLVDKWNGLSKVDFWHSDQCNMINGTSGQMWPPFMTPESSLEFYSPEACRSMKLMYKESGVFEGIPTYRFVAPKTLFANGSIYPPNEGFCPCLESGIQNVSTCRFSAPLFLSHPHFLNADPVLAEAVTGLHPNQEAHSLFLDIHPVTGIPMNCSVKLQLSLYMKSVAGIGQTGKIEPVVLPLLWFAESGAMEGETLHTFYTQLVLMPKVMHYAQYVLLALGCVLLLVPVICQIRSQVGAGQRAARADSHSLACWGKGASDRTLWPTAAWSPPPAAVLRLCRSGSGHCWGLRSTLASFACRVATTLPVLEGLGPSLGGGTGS
In words: Inhibition of human SRB1-mediated Hepatitis C virus genotype 2a entry into human 293T cells by immunoblotting. It counts as cell-based.

A short description of data set [4]: AUC (all) in rat at 2 mg/kg, iv and 20 mg/kg, po. It counts as ADME, organism-based. The note with it: plasma.
A short description of data set [5]: Cmax in rat at 2 mg/kg, iv and 20 mg/kg, po. Conditions: in vivo. Format: ADME, organism-based.
Data set [6] deals with Plasma. In words: Metabolic stability in rat plasma. Format: ADME, cell-free.
The nature of data set [7]: Half life in rat at 2 mg/kg, iv and 20 mg/kg, po. It counts as ADME, organism-based. The note with it: in vivo.
Data set [8] is described as follows: Oral bioavailability in rat at 20 mg/kg. Format: ADME, organism-based. The note with it: in vivo.
Data set [9] is described as follows: Clearance in rat at 2 mg/kg, iv and 20 mg/kg, po. It counts as ADME, organism-based. Conditions: in vivo.
Data set [10] is described as follows: Apparent volume of distribution in rat at 2 mg/kg, iv and 20 mg/kg, po. It counts as ADME, organism-based. Conditions: in vivo, read-out: Vz.

In data set [1], `COC(=O)c1ccc2c(c1)c1c(n2CCCCNc2nc(OC)cc(OC)n2)CCCC1` showed a half-inhibitory concentration (IC50) of 30 nM. That is a double-digit nanomolar value.
Turning to `COC(=O)c1ccc2c(c1)c1c(n2CCCNc2nc(OC)cc(OC)n2)CCCC1`, the Drug metabolism result in [2] is given as “Active”. For the same molecule, in data set [1], 1.5 nM corresponded to half-maximal inhibition (IC50). In addition, the inhibition entry in [3] was “Active”.
In data set [1], `COC(=O)c1ccc2c(c1)c1c(n2CCCN2C[C@@H](C)N[C@@H](C)C2)CCCC1` registered an IC50 of 40 nM.
Same read-out and setting: for `COC(=O)c1ccc2c(c1)c1c(n2CCCNS(=O)(=O)c2cc(F)cc(F)c2)CCCC1` the value was 15 nM.
In [1], `COC(=O)c1ccc2c(c1)c1c(n2CCc2nc3cc(C)c(C)cc3[nH]2)CCCC1` yielded an IC50 of 5 nM.
Same read-out and setting: for `COC(=O)c1ccc2c(c1)c1c(n2CCS(=O)(=O)N(C)C)CCCC1` the value was more than 1000 nM; for `COC(=O)c1ccc2c(c1)c1c(n2CCc2nc3ccccc3[nH]2)CCCC1`, 5 nM.
Molecule `COC(=O)c1ccc2c(c1)c1c(n2CCCOc2nc(OC)cc(OC)n2)CCCC1` showed a 50% inhibitory concentration (IC50) in [1] of 0.6 nM.
`COC(=O)c1ccc2c(c1)c1c(n2CCCOc2cc(Cl)nc(C)n2)CCCC1` returned an IC50 in [1] of 1.5 nM. This IC50 lies about 2.5-fold higher than the previous one.
Still for that read-out and setting: the figure for `COC(=O)c1ccc2c(c1)c1c(n2CCCNc2ncccn2)CCCC1` is 50 nM; for `COC(=O)c1ccc2c(c1)c1c(n2CC2CCN(c3nc(OC)cc(OC)n3)CC2)CCCC1` it is 15 nM.
In data set [4], `COc1cc(OC)nc(NCCCn2c3c(c4cc(C(=O)OC(C)C)ccc42)CCCC3)n1` had an AUC of 896 ng·h/mL. For the same molecule, the peak level in data set [5] (Cmax) was 547 ng/mL. The Stability result in [6] was “Stable”. The IC50 in data set [1] amounted to 10 nM. The half-life in [7] is 74.4 min. Moreover, in data set [8], the bioavailability is 19%. Further, the inhibition result in data set [3] was “Active”. In [9], this molecule gave a clearance of 71.8 mL/min/kg. For the same molecule, the Vd in [10] came out at 17.6 L/kg.
In turn, `COC(=O)c1ccc2c(c1)c1c(n2CCCN2C[C@@H](C)O[C@@H](C)C2)CCCC1` displayed an IC50 in data set [1] of 25 nM.
For the molecule `COC(=O)c1ccc2c(c1)c1c(n2CCCNc2nc(C)cc(C(=O)OC)n2)CCCC1`, inhibition in data set [1] was half-maximal at 30 nM (IC50).
Still for that read-out and setting: the figure for `COC(=O)c1ccc2c(c1)c1c(n2CCCS(=O)(=O)N2C[C@@H](C)O[C@@H](C)C2)CCCC1` is 150 nM; for `COC(=O)c1ccc2c(c1)c1c(n2CCCNc2cc(C)nc(Cl)n2)CCCC1` it is 30 nM.
In data set [1], `COC(=O)c1ccc2c(c1)c1c(n2CCCS(=O)(=O)N2CCCCC2)CCCC1` showed an IC50 of 30 nM.
As for `COc1cc(OC)nc(NCCCn2c3c(c4cc(C(=O)O)ccc42)CCCC3)n1`, the outcome in [1] (Hepacivirus hominis) was inactive. Also, the inhibition entry in [3] is “inactive”.
As to `COC(=O)c1ccc2c(c1)c1c(n2CCCN(C)c2nc(OC)cc(OC)n2)CCCC1`, the IC50 in data set [1] was 1.5 nM.
On the same count and under the same terms, for `COC(=O)c1ccc2c(c1)c1c(n2CC2CCCN(c3nc(OC)cc(OC)n3)C2)CCCC1` (stereo not given) the value was 50 nM.
On the same count and under the same terms, the figure for `COC(=O)c1ccc2c(c1)c1c(n2CCCn2cncc2C)CCCC1` is 310 nM.
The same measure, in the same setting: the figure for `COC(=O)c1ccc2c(c1)c1c(n2CCCS(=O)(=O)c2ccccc2)CCCC1` is 50 nM; for `COC(=O)c1ccc2c(c1)c1c(n2CCCN2CCNC(=O)C2)CCCC1` it is 65 nM.
`CNC(=O)c1ccc2c(c1)c1c(n2CCCNc2nc(OC)cc(OC)n2)CCCC1` showed an exposure (AUC) in data set [4] of 45 ng·h/mL. Also, the Cmax in data set [5] was 51 ng/mL. Moreover, the Stability result in [6] is “Stable”. Moreover, the IC50 in [1] came out at 10 nM. The molecule also had a half-life in data set [7] of 28.2 min. Further, in data set [8], the bioavailability is 0.8%. For the same molecule, the inhibition entry in data set [3] was “Active”. The same molecule showed a clearance in data set [9] of 58.2 mL/min/kg. Also, the Vd in [10] was 1.33 L/kg.
For the molecule `COC(=O)c1ccc2c(c1)c1c(n2CCCN2CCCC(C(=O)N(C)C)C2)CCCC1` (stereo not given), in data set [1], the IC50 worked out at 50 nM. That is a double-digit nanomolar value.
In the case of `COc1cc(OC)nc(NCCCn2c3c(c4cc(C(=O)N(C)C)ccc42)CCCC3)n1`, the exposure (AUC) in data set [4] was found to be 41 ng·h/mL. In data set [5], the highest level (Cmax) was 51 ng/mL. Besides, the Stability entry in [6] is given as “Stable”. Further, the IC50 in data set [1] amounted to 30 nM. The molecule also showed a half-life in data set [7] of 33 min. The molecule further displayed a bioavailability in data set [8] of 0.6%. Further, the inhibition entry in data set [3] was “Active”. The molecule also showed a clearance in [9] of 45 mL/min/kg. Moreover, the Vd in [10] was 2.05 L/kg.
`COC(=O)c1ccc2c(c1)c1c(n2CCCNc2nc(OC)nc(OC)n2)CCCC1` yielded an IC50 in data set [1] of 15 nM.
`COC(=O)c1ccc2c(c1)c1c(n2CCCOc2nc(C)cc(C(F)(F)F)n2)CCCC1` gave an IC50 in data set [1] of 5 nM. Against the preceding molecule, the IC50 is about 3-fold lower.
Same read-out and setting: for `COC(=O)c1ccc2c(c1)c1c(n2CCCNS(=O)(=O)C(C)C)CCCC1` the value was 50 nM; for `COC(=O)c1ccc2c(c1)c1c(n2CCCn2ccnc2)CCCC1`, 170 nM.
With `COc1cc(OC)nc(NCCCn2c3c(c4cc(C(=O)NC(C)C)ccc42)CCCC3)n1`, the Stability entry in data set [6] is listed as “Stable”. The molecule further came in with an IC50 in data set [1] of 150 nM.
In turn, `CCc1cc(CC)nc(OCCCn2c3c(c4cc(C(=O)OC)ccc42)CCCC3)n1` had an IC50 in [1] of 1.5 nM.
With `COC(=O)c1ccc2c(c1)c1c(n2C2CCN(c3nc(OC)cc(OC)n3)CC2)CCCC1`, the IC50 in data set [1] amounted to 300 nM. This IC50 is about 200-fold higher than that of the molecule before.
On the same count and under the same terms, the figure for `COC(=O)c1ccc2c(c1)c1c(n2CCCC(=O)N(C)C)CCCC1` is 300 nM; for `COC(=O)c1ccc2c(c1)c1c(n2CCCS(=O)(=O)N2CCOCC2)CCCC1` it is 15 nM; for `COC(=O)c1ccc2c(c1)c1c(n2CCCn2cnc3ncncc32)CCCC1` it is 50 nM.
Molecule `COC(=O)c1ccc2c(c1)c1c(n2CCCS(=O)(=O)N(C)C)CCCC1` had an IC50 in [1] of 5 nM.
`COC(=O)c1ccc2c(c1)c1c(n2CCCS(=O)(=O)N2CCC2)CCCC1` registered an IC50 in [1] of 15 nM.
Take `CCN(CC)C(=O)c1ccc2c(c1)c1c(n2CCCNc2nc(OC)cc(OC)n2)CCCC1`: the Stability entry in data set [6] is on record as “Stable”. This molecule displayed an IC50 in data set [1] of 50 nM.
In data set [1], `COC(=O)c1ccc2c(c1)c1c(n2CCCN2CCOCC2)CCCC1` had an IC50 of 150 nM.
In the case of `COC(=O)c1ccc2c(c1)c1c(n2CCCNc2nccc(OC)n2)CCCC1`, the IC50 in data set [1] was determined as 15 nM. This IC50 lies about 10-fold lower than the previous one.

In general, IC50 refers to the concentration that gives 50% inhibition. Broadly, the AUC is the area under the concentration-time curve, a measure of exposure. Low readings indicate low exposure, high ones high exposure. The Cmax is the highest concentration seen after dosing. One may read the half-life as the time needed for the level to fall by half in the phase considered. High values mean slow loss, low ones fast loss. Broadly, the bioavailability is the share of a dose that reaches the circulation, judged against a reference dose that is usually intravenous.
